Experimental data taken from patent publication US20240299353A1, “COMPOSITIONS AND METHODS FOR TREATING […] 5-MEO-DMT” (Alvarius Pharmaceuticals Ltd., priority 2021, published 2024).

Experiments:
G9a [1] = assay: Western blot of G9a in brain regions, chronic cocaine ± 5-MeO-DMT; assay type: in vivo, Male Wistar rats
Source text: (§1) Male Wistar rats aged 7 weeks were acclimatized to the facility for 1 week prior to the beginning of the study. […] Animals were euthanized 23- or 119-hours following vehicle or 5-MeO-DMT administration.
(§2) Following euthanasia brain regions of interest were isolated. Briefly, the olfactory bulbs were removed before the brain was placed in a rat brain matrix (FIG. 2A). Sterile blades were inserted at positions 2 and 3 (FIG. 2B) to extract a coronal slice containing the Bregma+˜0.2-+˜2.2 coordinates (FIG. 2C). From this tissue slice a blunted 12 G needle was used to punch dissect the NAc and dorsal striatum (DS) (FIG. 2D-2E) identified using the rat brain atlas (Panxinos and Watson 2nd edition). The PFC, hippocampus (Hip) and amygdala (Amyg) were then blunt dissected (FIG. 3A-3D). All regions were frozen in liquid nitrogen and stored at −80° C. until processed.
(§3) These treatment groups were used for the molecular assessment of addiction-linked markers.
(§4) Determination of protein concentration—a bicinchoninic acid assay (BCA, ThermoFisher) was conducted to determine the total protein concentration in tissue lysates following manufacturer's instructions. Briefly, bovine serum albumin (BSA) standards were prepared in a serial dilution (0-2.0 mg protein/ml) and 200 μl working reagent (50:1, reagent A: reagent B) was added to each of the standards and samples in a 96 well plate (Greiner). For tissue lysates a 1:10 dilution was performed with cell lysis buffer to ensure absorbance values lay within the working range established by the standards. All samples and standards were added in duplicate. The plate was covered and incubated for 30 mins at 37° C. before absorbance was read at 562 nm on a plate reader (SpectraMax M3). The absorbance values were used to form a standard curve of known protein concentrations and protein concentration of samples were derived using the equation of the line. All samples were standardized to the lowest protein concentration using distilled H20 (dH2O).
(§5) SDS-PAGE and Western Blotting—Following equalisation of protein concentrations, 6× sample loading buffer (15% SDS, 15% […], 50% glycerol, 0.01% bromophenol blue, […]) was added to each sample using a dilution factor of 1:5 of the total volumes before boiling at 100° C. for 5 mins. Samples were stored at −20° C. until use. One dimensional sodium-dodecyl-sulphate polyacrylamide gel electrophoresis (SDS-PAGE) was used for protein separation based on molecular weight. The percentage of acrylamide in the resolving or stacking gel was determined by the molecular weight of the protein of interest. In this instance all gels consisted of a 5% stacking gel and a 10% resolving gel with the exception of mGluR5, G9a (8%) and H3K9Me2 (12%). 20 μg of protein was loaded and resolved using SDS-PAGE. Gel electrophoresis was conducted at 80V while the protein was in the stacking gel, once it migrated to the resolving gel the voltage was increased to 120V and ran for 90 mins. Samples were transferred to a 0.45 μm polyvinylidene difluoride (PVDF) membrane (Analab) for 1 hour at 100V and blocked in 5% milk blocking solution made in tris-buffered saline containing tween®-20 (TBS-T, Sigma) for 90 mins. Primary antibodies (FIG. 5) were diluted in 5% BSA in TBS-T and incubated with membranes overnight at 4° C. or for 2 hours at room temperature. After incubation with primary antibodies the membranes were washed in TBS-T for 4×10 minutes before incubation with 1:2000 anti-rabbit and 1:2000 anti-mouse Alexa Fluro® conjugated secondary antibodies (Invitrogen) in 2% milk for 1 hour at room temperature. Membranes were washed in TBS-T for 4×10 minutes and in TBS for 1×10-minute wash. Proteins were visualized using Odyssey® infrared imaging system. Protein expression was quantified using Image Studio Lite (Version 5.2) and expression intensities were normalized to a house keeping protein, α-Tubulin or β-actin.

[2] = humans, following insufflation; cited from earlier work
pCREB = assay: Western blot of pCREB in brain regions, chronic cocaine ± 5-MeO-DMT; assay type: in vivo, Male Wistar rats; settings: for pCREB levels: 24 h
Source text: as §1, §2, §3, §4
SDS-PAGE and Western Blotting—Following equalisation of protein concentrations, 6× sample loading buffer (15% SDS, 15% […], 50% glycerol, 0.01% bromophenol blue, […]) was added to each sample using a dilution factor of 1:5 of the total volumes before boiling at 100° C. for 5 mins. Samples were stored at −20° C. until use. One dimensional sodium-dodecyl-sulphate polyacrylamide gel electrophoresis (SDS-PAGE) was used for protein separation based on molecular weight. The percentage of acrylamide in the resolving or stacking gel was determined by the molecular weight of the protein of interest. […] Protein expression was quantified using Image Studio Lite (Version 5.2) and expression intensities were normalized to a house keeping protein, α-Tubulin or β-actin.

[3] = cited from earlier work
FosB = assay: Western blot of FosB in brain regions, chronic cocaine ± 5-MeO-DMT; assay type: in vivo, Male Wistar rats
Source text: as §1, §2, §3, §4, §5

H3K9Me2 = settings: repeated cocaine; cited from earlier work
G9a [4] = settings: repeated cocaine; cited from earlier work

SMILES: COc1ccc2[nH]cc(CCN(C)C)c2c1 [5-MeO-DMT, 5-methoxy-N,N-dimethyltryptamine]
- G9a expression (G9a [1]; PFC, 24 h, cocaine+20 mg/kg 5-MeO-DMT relative to saline+vehicle): significant decrease in G9a expression
- G9a expression (G9a [1]; dorsal striatum, 24 h, 20 mg/kg 5-MeO-DMT alone): increased G9a expression levels
- G9a expression (G9a [1]; dorsal striatum, 24 h, cocaine + either concentration of 5-MeO-DMT (10 or 20 mg/kg)): significantly reduced G9a levels relative to the cocaine+vehicle group
- G9a expression (G9a [1]; dorsal striatum, 120 h, 20 mg/kg 5-MeO-DMT alone): remained significantly elevated
- G9a expression (G9a [1]; hippocampus, 5-MeO-DMT alone): no change in enzyme expression
- G9a expression (G9a [1]; hippocampus, 24 h, cocaine+20 mg/kg 5-MeO-DMT): normalised the cocaine-induced decrease in G9a
- end of effects [2]: 60 to 70 min
- peak of effects [2]: 35 to 40 min
- start of effects [2]: 3 to 4 min
- pCREB levels (pCREB; PFC, cocaine+20 mg/kg 5-MeO-DMT relative to saline+20 mg/kg): decrease in pCREB
- proportion of pCREB relative to total CREB (pCREB; PFC, 24 h and 120 h, all treatments): no change
- pCREB levels (pCREB; amygdala, 20 mg/kg 5-MeO-DMT in saline-treated animals): increased
- proportion of pCREB (pCREB; amygdala, 24 h and 120 h, any of the treatments): unchanged by any of the treatments
- blood-brain barrier passage ([3]; rat brain regions): readily crosses the blood-brain barrier
- brain drug concentrations with increase in dose ([3]; throughout the brain): increased non-proportionally
- FosB expression (FosB; PFC, 24 h and 120 h, any of the treatments): unchanged by any of the treatments
- FosB expression (FosB; amygdala, 24 h, any treatment): no change in FosB levels
- FosB expression (FosB; amygdala, 120 h, cocaine x 5-MeO-DMT interaction p=0.0353): no post hoc differences between treatment groups
- FosB expression (FosB; dorsal striatum, 24 h, 5-MeO-DMT alone): does not regulate the expression
- FosB expression (FosB; dorsal striatum, 120 h, irrespective of the treatment group): no change in expression levels
- FosB expression (FosB; nucleus accumbens, 24 h, cocaine+10 mg/kg 5-MeO-DMT (1 h post last cocaine)): increase FosB expression
- FosB expression (FosB; nucleus accumbens, 24 h, cocaine+20 mg/kg 5-MeO-DMT (1 h post last cocaine)): no significant difference in FosB expression levels relative to the saline+vehicle control group
- FosB expression (FosB; nucleus accumbens, 24 h, saline+10 mg/kg 5-MeO-DMT single dose): not 10 mg/kg increasing expression
- FosB expression (FosB; nucleus accumbens, 24 h, saline+20 mg/kg 5-MeO-DMT single dose): increasing expression
- FosB expression (FosB; nucleus accumbens, 120 h, 5-MeO-DMT alone): does not persist to 120 hours

SMILES: COC(=O)[C@H]1[C@@H](OC(=O)c2ccccc2)C[C@@H]2CC[C@H]1N2C.Cl [cocaine, cocaine hydrochloride, reference compound]
- decrease in H3K9Me2 expression (H3K9Me2): 15%
- reduction in G9a expression (G9a [4]): 19%
